Source: patent publication US10238665B2, “Methods for treating fungal infections” (BRIGHAM YOUNG UNIVERSITY, priority 2014, dated 2019)
Values after ≈ are worked out from the molar mass of the structure shown. Like-named read-outs stand apart in the source and are kept apart here.

Experiments:
[1] = system: C. lusitaniae; assay: Additional MIC experiments (CSA-13 and squalamine); format: cell-based, Candida lusitaniae
Method: (§1) An antifungal agent is serially diluted two-fold in a desired medium to produce ten concentrations of the antifungal under investigation. The range used is chosen to include achievable serum levels of the drug. A standardized inoculum of either yeast cells or conidia is diluted in an equal volume of the desired medium. The yeast or conidia inoculum is incubated in the serially diluted drug wells at 35° C. Two wells are used as controls. The negative control well has only media and serves as a sterility control. The positive control well has the standardized inoculum with no drug, and is used to compare with the amount of growth in the drug wells.
(§2) Testing is reported as an MIC, or minimum inhibitory concentration in μg/ml. This number represents the concentration at which the organism's growth in inhibited 50% from the control well for yeasts, and 80% for dermatophytes and certain filamentous fungi/antifungal combinations. Amphotericin B readings are taken at 100% inhibition.
(§3) Fungal cultures were prepared as follows: • 1. Grow Candida sp. on a potato dextrose agar plate for 24 hrs. at 35° C. Grow Cryptococcus sp. for 48 hrs. • 2. Pick 5 colonies >1 mm in diameter to 5 ml of 0.85% sterile saline in a sterile 15 ml conical tube and vortex. • 3. Count the cells using a hemacytometer • 4. […]

[2] = system: T. mentagrophytes; assay: MIC determination, broth microdilution (CLSI M38-A); format: cell-based, Trichophyton mentagrophytes; conditions: 35° C., 80% growth inhibition for dermatophytes
Method: (§4) CSA 8 and CSA 13 were dissolved in dimethyl sulfoxide (DMSO) to create stock solutions. These solutions were applied to fungal isolates to determine the minimum inhibitory concentration (MIC) for each CSA.
as §1, §2
(§5) Fungal cultures were prepared as follows: • 1. Grow Candida sp. on a potato dextrose agar plate for 24 hrs. at 35° C. Grow Cryptococcus sp. for 48 hrs. • 2. […]

[3] = system: C. krusei; assay: MIC determination, broth microdilution (CLSI M27-A2); format: cell-based, Candida krusei; conditions: 35° C., 24 hrs, 50% growth inhibition
Method: as §4, §1, §2, §5

[4] = system: C. krusei (fluconazole resistant); assay: as above; format: cell-based, Candida krusei; conditions: 35° C., 24 hrs, 50% growth inhibition
Method: as §4, §1, §2, §5

[5] = system: T. rubrum (terbinafine resistant); assay: MIC determination, broth microdilution (CLSI M38-A); format: cell-based, Trichophyton rubrum; conditions: 35° C., 80% growth inhibition for dermatophytes
Method: as §4, §1, §2, §5

[6] = system: Cladosporium sp.; assay: as above; format: cell-based; conditions: 35° C.
Method: as §4, §1, §2
(§6) Fungal cultures were prepared as follows: • 1. Grow Candida sp. on a potato dextrose agar plate for 24 hrs. at 35° C. Grow Cryptococcus sp. for 48 hrs. • 2. Pick 5 colonies >1 mm in diameter to 5 ml of 0.85% sterile saline in a sterile 15 ml conical tube and vortex. • 3. Count the cells using a hemacytometer • 4. Prepare a working suspension of yeast cells in RPMI-1640 to a final concentration of 2-5×10^3 CFU/ml (CFU=colony forming units or yeast cells) • 5. Prepare at least 2.5 ml of the working yeast suspension per drug per plate.
(§7) Plates were prepared as follows: • 1. Aseptically dispense RPMI-1640 into a 25 ml reservoir. • 2. Using a multichannel pipette with 8 tips, dispense 100 μl of RPMI-1640 into the wells of a 96 well round bottom plate in columns 11 and 12. These will serve as growth controls and sterility controls, respectively. • 3. Remove excess liquid from the reservoir. • 4. Add the lowest concentration of antifungal from the set of final concentrations to the reservoir, and using the same set of tips, dispense 100 μl into the wells of column 10. • 5. Repeat steps 4-5 for each final concentration, working from lowest to highest concentration into columns 9 through 1, until all columns are filled. • 6. Using a new set of pipette tips and a new reservoir, add 100 μl of inoculum to each well except […]. • 7. Run each organism in duplicate (i.e. add isolate one to rows 1 and 2, isolate two to rows 3 and four, etc.) • 8. Incubate the plates at 35° C. for 24 hrs. for Candida sp. and 72 hrs. for Cryptococcus sp. • Similar procedures are followed for Aspergillus sp., Trichophyton sp., and Microsporum sp.
(§8) Stock solutions of water-soluble and water insoluble antifungal agents were prepared according to standard laboratory procedures.
(§9) Antifungal susceptibility testing gives a numerical result expressed in μg/ml indicating an in vitro MIC, or minimum inhibitory concentration, of the drug being investigated. The Clinical and Laboratory Standards Institute (CLSI) has provided guidelines for standardized microdilution broth testing (CLSI M27-A2 for yeasts and CLSI M38-A for filamentous molds), which is followed in the above procedure. The CLSI has also published guidelines for interpretation of MIC results based on clinical correlation studies for yeasts.

[7] = system: Microsporum canis; assay: as above; format: cell-based; conditions: 35° C., 80% growth inhibition for dermatophytes
Method: as §4, §1, §2, §6, §7, §8, §9

[8] = system: Aspergillus fumigatus; assay: as above; format: cell-based; conditions: 35° C.
Method: as §4, §1, §2, §6, §7, §8, §9

[9] = system: Aspergillus niger; assay: as above; format: cell-based; conditions: 35° C.
Method: as §4, §1, §2, §6, §7, §8, §9

[10] = system: Penicillium sp.; assay: as above; format: cell-based; conditions: 35° C.
Method: as §4, §1, §2, §6, §7, §8, §9

[11] = system: Trichophyton rubrum; assay: as above; format: cell-based; conditions: 35° C., 80% growth inhibition for dermatophytes
Method: as §4, §1, §2, §6, §7, §8, §9

[12] = system: C. galabrata (fluconazole resistant); assay: MIC determination, broth microdilution (CLSI M27-A2); format: cell-based, Candida glabrata; conditions: 35° C., 24 hrs, 50% growth inhibition
Method: as §4, §1, §2, §5

[13] = system: T. tonsurans; assay: MIC determination, broth microdilution (CLSI M38-A); format: cell-based, Trichophyton tonsurans; conditions: 35° C., 80% growth inhibition for dermatophytes
Method: as §4, §1, §2, §5

[14] = system: C. parapsilosis; assay: MIC determination, broth microdilution (CLSI M27-A2); format: cell-based, Candida parapsilosis; conditions: 35° C., 24 hrs, 50% growth inhibition
Method: as §4, §1, §2, §5

[15] = system: C. tropicalis; assay: Additional MIC experiments (CSA-13 and squalamine); format: cell-based, Candida tropicalis
Method: as §1, §2, §3

[16] = system: C. albicans (fluconazole resistant); assay: MIC determination, broth microdilution (CLSI M27-A2); format: cell-based, Candida albicans; conditions: 35° C., 24 hrs, 50% growth inhibition
Method: as §4, §1, §2, §5

[17] = system: C. glabrata; assay: Additional MIC experiments (CSA-13 and squalamine); format: cell-based, Candida glabrata
Method: as §1, §2, §3

[18] = system: C. guilliermondii; assay: Additional MIC experiments (CSA-13 and squalamine); format: cell-based, Candida guilliermondii
Method: as §1, §2, §3

[19] = system: Cryptococcus neofermans; assay: Additional MIC experiments (CSA-13 and squalamine); format: cell-based, Cryptococcus neoformans
Method: as §1, §2, §3

[20] = system: Candida albicans; assay: MIC determination, broth microdilution (CLSI M27-A2); format: cell-based; conditions: 35° C., 24 hrs, 50% growth inhibition
Method: as §4, §1, §2, §5

[21] = system: 100 Candida auris isolates; assay: Antifungal effectiveness against Candida auris, MIC by CLSI M27-A3; format: cell-based
Method: The antifungal effectiveness of CSA-131 was tested against 100 Candida auris isolates. The C. auris isolates were form all over the world and covered know C. auris clades. The selection included isolated known to have elevated MIC values against fluconazole, the echinocandins, and/or amphotericin B.
Testing was performed according to the standards of the Clinical and Laboratory Standards Institute reference methodology M27-A3 (as of 2017). CSA-131 was dissolved in DMSO and diluted as described in M27-A3 to give a final DMSO concentration of <1%. Dilution plates were stored at −70° C. until used and were used within one week of being produced. All results were read visually after 24 hours of incubation at the lowest drug concentration at which there was a 50% decrease in growth by visual inspection. Quality control isolates C. parapsilosis ATCC22019 and C. krusei ATCC6258 were included on each day of testing although there are no standard QC values for these isolates against this compound. The MIC values for ATCC22019 and ATCC6258 remained within a tight range of 1-2 dilutions over the course of the study.

[22] = C. auris isolates with elevated echinocandin MICs, 7 isolates

CCCCCCCCNCCC[C@@H](C)[C@H]1CC[C@H]2[C@@H]3[C@H](OCCCN)C[C@@H]4C[C@H](OCCCN)CC[C@]4(C)[C@H]3C[C@H](OCCCN)[C@]12C [CSA 13]
MIC ([1]; C. lusitaniae): 0.5 µg/mL
MIC [2]: 2 µg/mL
MIC [3]: 2 µg/mL
MIC [4]: 1 µg/mL
MIC [5]: 4 µg/mL
MIC [6]: 0.5 µg/mL
MIC [7]: 2 µg/mL
MIC [8]: 8 µg/mL
MIC [9]: 2 µg/mL
MIC [10]: 0.5 µg/mL
MIC [11]: 4 µg/mL
MIC [12]: 2 µg/mL
MIC [13]: 2 µg/mL
MIC [14]: 2 µg/mL
MIC ([15]; C. tropicalis): 0.5 µg/mL
MIC [16]: 2 µg/mL
MIC ([17]; C. glabrata): 0.5 µg/mL
MIC ([18]; C. guilliermondii): 0.5 µg/mL
MIC ([19]; Cryptococcus neofermans): 0.5 µg/mL
MIC [20]: 2 µg/mL

CCCCCCCCCCCCNCCC[C@@H](C)[C@H]1CC[C@H]2[C@@H]3[C@H](OCCCN)C[C@@H]4C[C@H](OCCCN)CC[C@]4(C)[C@H]3C[C@H](OCCCN)[C@]12C [CSA-131]
MIC Range ([21]; 100 C. auris isolates, 24 hours, 50% decrease in growth): 0.5 to 1 µg/mL
MIC Range ([21]; C. auris Clade 1, 47 isolates): 0.5 to 1 µg/mL
MIC90 ([21]; C. auris Clade 2, 11 isolates): 1 µg/mL (≈ 1.36 µM)
MIC Range ([21]; C. auris Clade 2, 11 isolates): 0.5 to 1 µg/mL
MIC90 ([21]; C. auris Clade 3, 39 isolates): 1 µg/mL (≈ 1.36 µM)
MIC Range ([21]; C. auris Clade 3, 39 isolates): 0.5 to 1 µg/mL
MIC90 ([21]; C. auris Clade 4, 3 isolates): 1 µg/mL (≈ 1.36 µM)
MIC Range ([21]; C. auris Clade 4, 3 isolates): 0.5 to 1 µg/mL
MIC90 [21, 22]: 1 µg/mL (≈ 1.36 µM)
MIC Range [21, 22]: 0.5 to 1 µg/mL
MIC50 ([21]; Candidozyma auris, 24 h, 100 C. auris isolates, 24 hours, 50% decrease in growth, read-out: MIC50): 1 µg/mL (≈ 1.36 µM)
MIC ([21]; Candidozyma auris, 24 h, 100 C. auris isolates, 24 hours, 50% decrease in growth, read-out: MIC Mode): 1 µg/mL (≈ 1.36 µM)
MIC50 ([21]; Candidozyma auris, C. auris Clade 1, 47 isolates, read-out: MIC50): 1 µg/mL (≈ 1.36 µM)
MIC90 ([21]; Candidozyma auris, C. auris Clade 1, 47 isolates, read-out: MIC90): 1 µg/mL (≈ 1.36 µM)
MIC ([21]; Candidozyma auris, C. auris Clade 1, 47 isolates, read-out: MIC Mode): 1 µg/mL (≈ 1.36 µM)
MIC50 ([21]; Candidozyma auris, C. auris Clade 2, 11 isolates, read-out: MIC50): 1 µg/mL (≈ 1.36 µM)
MIC ([21]; Candidozyma auris, C. auris Clade 2, 11 isolates, read-out: MIC Mode): 1 µg/mL (≈ 1.36 µM)
MIC50 ([21]; Candidozyma auris, C. auris Clade 3, 39 isolates, read-out: MIC50): 1 µg/mL (≈ 1.36 µM)
MIC ([21]; Candidozyma auris, C. auris Clade 3, 39 isolates, read-out: MIC Mode): 1 µg/mL (≈ 1.36 µM)
MIC50 ([21]; Candidozyma auris, C. auris Clade 4, 3 isolates, read-out: MIC50): 0.5 µg/mL (≈ 0.682 µM)
MIC ([21]; Candidozyma auris, C. auris Clade 4, 3 isolates, read-out: MIC Mode): 0.5 µg/mL (≈ 0.682 µM)
MIC50 ([21]; Candidozyma auris, C. auris isolates with elevated echinocandin MICs, 7 isolates, read-out: MIC50): 1 µg/mL (≈ 1.36 µM)
MIC ([21]; Candidozyma auris, C. auris isolates with elevated echinocandin MICs, 7 isolates, read-out: MIC Mode): 1 µg/mL (≈ 1.36 µM)
MIC50 ([21]; Candidozyma auris, fluconazole Resistant C. auris isolates, 69 isolates): 1 µg/mL (≈ 1.36 µM)
MIC50 ([21]; Candidozyma auris, fluconazole Susceptible C. auris isolates, 30 isolates): 0.5 µg/mL (≈ 0.682 µM)
MIC ([21]; Candidozyma auris, read-out: MIC Mode, fluconazole Resistant C. auris isolates, 69 isolates): 1 µg/mL (≈ 1.36 µM)
MIC90 ([21]; Candidozyma auris, 100 C. auris isolates, 24 hours, 50% decrease in growth, read-out: MIC90): 1 µg/mL (≈ 1.36 µM)
activity against C. auris (in words) ([21]; collection of 100 C. auris isolates, 4 clades): showed activity against all C. auris among this collection
MIC90 ([21]; {}): 1 µg/mL (≈ 1.36 µM)
MIC Range ([21]; {}): 0.5 to 1 µg/mL

CC(C)[C@@H](CC[C@@H](C)[C@H]1CC[C@H]2[C@@H]3[C@H](O)C[C@H]4C[C@@H](NCCCNCCCCN)CC[C@]4(C)[C@H]3CC[C@]12C)OS(=O)(=O)O [Squalamine, squalamine, reference compound]
MIC ([1]; Clavispora lusitaniae): 4 µg/mL
MIC ([15]; Candida tropicalis): 4 µg/mL
MIC ([17]; Nakaseomyces glabratus): 2 µg/mL
MIC ([18]; Meyerozyma guilliermondii): 4 µg/mL
MIC ([19]; Cryptococcus): 4 µg/mL
